Structures can show the parent of a compound that is named as a salt.
Assay: collision cross section in nitrogen (drift tube, single-field); higher = larger gas-phase ion size
[1] = ion type: [M-H], ion source: ESI, ion mode: Negative
[2] = ion type: [M+H], ion source: ESI, ion mode: Positive
[3] = ion type: [M+Na], ion source: ESI, ion mode: Positive
[4] = ion type: [M+H], ion source: APCI, ion mode: Positive
[5] = ion type: [M+], ion source: APCI, ion mode: Positive
[6] = ion source: ESI, ion mode: Positive, ion type: [M]+ (permanent cation)
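Further: chemical standards at 10 µM analysed by drift tube IMS-QTOF MS in about 3.95 torr nitrogen, mean of duplicate injections differing ≤1%, mass error below 10 ppm.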

Row | SMILES | collision cross section in nitrogen [1] [Å²] | collision cross section in nitrogen [2] [Å²] | collision cross section in nitrogen [3] [Å²] | collision cross section in nitrogen [4] [Å²] | other results
1 | CCCCCCCCCCCCCCCCCCOS(=O)(=O)O [Octadecyl sulfate sodium salt] | 189.8 |  |  |  | 
2 | COc1ccc(Cl)cc1C(=O)NCCc1ccc(S(=O)(=O)NC(=O)NC2CCCCC2)cc1 [Glybenclamide] | 213.2 | 206.6 | 217.6 |  | 
3 | CCOC(=O)C(C)OC(=O)c1cc(Oc2ccc(C(F)(F)F)cc2Cl)ccc1[N+](=O)[O-] (configuration not stated) [Lactofen] | 196 |  | 212.7 |  | 
4 | O=[N+]([O-])c1ccc(C=Cc2ccc([N+](=O)[O-])cc2S(=O)(=O)O)c(S(=O)(=O)O)c1 | 182.4 |  |  |  | 
5 | Cn1cc(-c2ccccc2)c(=O)c(-c2cccc(C(F)(F)F)c2)c1 [1-Methyl-3-phenyl-5-(3-(trifluoromethyl)phenyl)-4-pyridone] | 178.9 | 179.8 | 187.5 | 179.6 | 
6 | COc1ccc(C(=CC(=O)N2CCOCC2)c2ccc(Cl)cc2)cc1OC [Dimethomorph] |  | 199.2 | 208 | 200.7 | 
7 | CCCCN(CC)c1c([N+](=O)[O-])cc(C(F)(F)F)cc1[N+](=O)[O-] [Benfluralin] | 168.5 |  |  |  | 
8 | Oc1ccc(I)cc1 [4-Iodophenol] | 124.5 |  |  |  | 
9 | CN(C)c1ccc(C(=C2C=CC(=[N+](C)C)C=C2)c2ccc(N(C)C)cc2)cc1 [Gentian Violet] |  |  |  |  | collision cross section in nitrogen (ion source: APCI, ion mode: Positive, ion type: [M]+ (permanent cation)): 205 Å²; collision cross section in nitrogen [6]: 205.8 Å²
10 | CC1(CO)CN(c2ccccc2)NC1=O (configuration not stated) [4-(Hydroxymethyl)-4-methyl-1-phenylpyrazolidin-3-one] |  |  |  |  | collision cross section in nitrogen [5]: 143.2 Å²
11 | O=C(NC(=O)c1c(F)cccc1F)Nc1ccc(OC(F)(F)C(F)OC(F)(F)F)c(Cl)c1 (configuration not stated) [Novaluron] | 204.4 |  |  |  | 
12 | CN1[C@@H]2C[C@@H](OC(=O)[C@H](CO)c3ccccc3)C[C@H]1[C@@H]1O[C@@H]12 [Scopolamine hydrobromide] |  | 171.7 |  | 170.8 | 
13 | Cc1cnc(C2=NC(=O)C(C)(C(C)C)N2)c(C(=O)O)c1 (configuration not stated) [Imazapic] | 168.3 | 162.4 | 178.8 | 162.2 | 
14 | COP(=S)(NC(C)C)Oc1ccc(C)cc1[N+](=O)[O-] (configuration not stated) [Amiprofos-methyl] | 164.8 |  | 172.4 |  | 
15 | CCNc1nc(Cl)nc(NC(C)(C)C)n1 [Terbutylazine] |  | 153.8 |  | 153.8 | 
16 | C[C@H]1O[C@H](O[C@H]2[C@H](O)[C@@H](O)[C@@H](O)[C@H](O)[C@@H]2O)[C@@H](N)C[C@@H]1NC(=N)C(=O)O [Kasugamycin hydrochloride] | 178 | 165.9 |  |  | 
17 | NCCCN1CCN(CCCN)CC1 [1,4-Piperazinedipropanamine] |  | 150.2 |  | 150.3 | 
18 | OCCN1CCNCC1 [1-Piperazineethanol] |  | 125.6 |  | 124.7 | 
19 | CC(C)C1(C)N=C(c2nc3ccccc3cc2C(=O)O)NC1=O (configuration not stated) [Imazaquin] | 176.9 | 171.7 | 188.4 | 171.7 | 
20 | CNC(=O)ON=C(C)C(C)S(C)(=O)=O (configuration not stated) [Butoxycarboxim] |  |  | 149.8 |  | 
21 | CCOC(=O)CP(=O)(OCC)OCC [Triethyl phosphonoacetate] |  | 143.7 | 155 | 143.6 | 
22 | Cc1ccc(N/N=c2\c(=O)cc/c(=N/Nc3ccc(S(=O)(=O)O)cc3)c2=O)c(C)c1 [C.I. Acid Orange 24, monosodium salt] | 221 |  |  |  | 
23 | CCNc1nc(Cl)nc(NC(C)C)n1 [Atrazine] |  | 149.5 |  | 149 | 
24 | C[N+]1(C)CCCCC1 [1,1-Dimethylpiperidinium chloride] |  |  |  |  | collision cross section in nitrogen [6]: 121.2 Å²
25 | CCCCCCCCOC(=O)c1ccc(C(=O)OCCCCCCCC)c(C(=O)OCCCCCCCC)c1 [Tri-n-octyl trimellitate] |  | 259 | 263.7 |  | 
26 | CC1(C)[C@@H](O[C@H]2O[C@H](C(=O)O)[C@@H](O)[C@H](O)[C@H]2O[C@@H]2O[C@H](C(=O)O)[C@@H](O)[C@H](O)[C@H]2O)CC[C@]2(C)[C@H]3C(=O)C=C4[C@@H]5C[C@@](C)(C(=O)O)CC[C@]5(C)CC[C@@]4(C)[C@]3(C)CC[C@@H]12 [Ammonium glycyrrhizinate trihydrate] | 282.6 | 286.8 | 294.4 |  | 
27 | CC[C@H](C)C(=O)O[C@H]1C[C@@H](C)C=C2C=C[C@H](C)[C@H](CC[C@@H]3C[C@@H](O)CC(=O)O3)[C@H]21 [Lovastatin] |  |  | 203.9 |  | 
28 | CCOP(=S)(NC(C)C)Oc1ccccc1C(=O)OC(C)C (configuration not stated) [Isofenphos] | 173.7 |  | 184.2 |  | 
29 | O=C1Nc2ccc(Cl)cc2C(c2ccccc2)=NC1O (configuration not stated) [Oxazepam] | 162.7 | 163.7 | 180 | 163.5 | 
30 | CC(C)C[C@H]1C(=O)N2CCC[C@H]2[C@]2(O)O[C@](NC(=O)[C@@H]3C=C4c5cccc6[nH]c(Br)c(c56)C[C@H]4N(C)C3)(C(C)C)C(=O)N12 [Bromocriptine mesylate] | 251.7 | 247.4 | 248.5 | 242.9 | 

Continued, in another order:

Row | collision cross section in nitrogen [1] [Å²] | collision cross section in nitrogen [2] [Å²] | collision cross section in nitrogen [3] [Å²] | collision cross section in nitrogen [4] [Å²] | SMILES | other results
31 | 162.8 |  |  |  | Cc1ccc(C(=O)c2cc(O)c(O)c([N+](=O)[O-])c2)cc1 [Tolcapone] | 
32 | 208.7 | 204.7 |  |  | O=C1OC2(c3ccccc31)c1cc(Br)c(O)c(Br)c1Oc1c2cc(Br)c(O)c1Br [2',4',5',7'-Tetrabromofluorescein] | 
33 | 227.8 | 235.2 |  |  | Cc1ccc(Nc2ccc(Nc3ccc(C)cc3S(=O)(=O)O)c3c2C(=O)c2ccccc2C3=O)c(S(=O)(=O)O)c1 | 
34 | 198 | 198.2 |  |  | CC1(C)CCC(C)(C)c2cc(C(=O)Nc3ccc(C(=O)O)cc3)ccc21 | 
35 |  |  | 179.5 | 189.4 | COCCCOc1ccnc(CS(=O)c2nc3ccccc3[nH]2)c1C (configuration not stated) [Rabeprazole sodium] | collision cross section in nitrogen [5]: 187.8 Å²
36 | 138 |  |  |  | CC(=O)CC(=O)Nc1ccccc1 [Acetoacetanilide] | 
37 |  | 185.8 | 193.7 | 186.2 | c1ccc2sc(SN(C3CCCCC3)C3CCCCC3)nc2c1 [N,N-Dicyclohexyl-2-benzothiazolesulfenamide] | 
38 | 190.5 | 185 | 205.5 | 186.2 | O=C1OC2(c3ccccc31)c1ccc(O)c(Br)c1Oc1c2ccc(O)c1Br [C.I. Solvent Red 72] | 
39 |  |  |  | 163.4 | CCCC1C(CC)=CC(CC)=CN1c1ccccc1 (configuration not stated) [3,5-Diethyl-1-phenyl-2-propyl-1,2-dihydropyridine] | 
40 |  | 187.4 |  | 187.8 | COc1ccc(-n2nc(C(F)F)cc2-c2ccc(S(C)=O)cc2)cc1 (configuration not stated) [Difpas-pyrazole] | 
41 | 236.4 | 230.9 | 234.1 | 231 | CCCCc1ccc2c(n1)[C@@H](c1ccc(OC)cc1C[C@H](C)C(=O)O)[C@H](C(=O)O)[C@H]2c1ccc2c(c1)OCO2 [MK-547] | 
42 | 160.8 |  | 157.4 |  | O=C(O)c1ccccc1C(=O)OCc1ccccc1 [Monobenzyl phthalate] | 
43 | 214.6 | 200.9 | 196.9 | 201 | CCC(=C(c1ccc(O)cc1)c1ccc(OCCN(C)C)cc1)c1ccccc1 [4-Hydroxytamoxifen] | 
44 |  | 144.7 | 148.5 | 144.7 | Cc1ccccc1NC(=N)NC(=N)N [1-(o-Tolyl)biguanide] | 
45 | 144.4 | 142.9 | 156.9 |  | CC1=NN(c2ccc(C)cc2)C(=O)C1 [3-Methyl-1-p-tolyl-5-pyrazolone] | 
46 |  |  | 155.6 |  | CCOCCOC(=O)C=Cc1ccc(OC)cc1 [Cinoxate] | 
47 | 199.1 |  |  |  | Cc1cc(NC(=O)C(=O)O)cc(C)c1Oc1ccc(O)c2c1CCC2 | 
48 |  | 162.8 | 167.7 | 162.5 | CC(C)NCC(O)COc1cccc2ccccc12 (configuration not stated) [Propranolol hydrochloride] | 
49 | 178.1 |  | 182.6 |  | CNCc1ccc(NC(=O)c2c[nH]c3c2C(=O)CCC3)cc1 | 
50 |  | 124.2 |  |  | O=C(O)c1cccnc1 [Nicotinic acid] | 
51 |  | 192 | 195.7 | 192.5 | O=c1n(CCCN2CCN(c3cccc(Cl)c3)CC2)nc2ccccn12 [Trazodone hydrochloride] | 
52 |  | 162.2 |  |  | CN(C)Cc1ccccc1O [2-((Dimethylamino)methyl)phenol] | 
53 |  | 222.5 | 219.1 |  | CCCCCCCCCCOC(=O)c1ccccc1C(=O)OCCCCCCCC [Octyl decyl phthalate] | 
54 | 203.8 |  |  | 201.9 | c1ccc2cc(Nc3ccc(Nc4ccc5ccccc5c4)cc3)ccc2c1 [N,N'-Di-2-naphthyl-p-phenylenediamine] | 

Source: the supplement of paper PMC12317010
